Source: US11413267B2, “Methods and compositions for inhibition of ATR and FANCD2 activation” (priority 2012, dated 2022)
Marks after values point to notes of the source that are not given here.

What was measured:
[1] = tested on: MDA-MB-231 cells; assay: In vitro chemosensitization assay (clonogenic survival); assay type: cell-based, human
From the text: Inhibition of the checkpoint and repair mechanisms leads to chemosensitization in cancers. […] We further treated individual cells with cisplatin in combination with several varying doses of benzopyran-4-one derivatives, and counted survival colonies to determine their ability to survive after cisplatin-induced damage. […] To investigate the chemosensitization effect of low-dose benzopyran-4-one derivatives in vivo, we established a tumor xenograft in nude mice using human MDA-MB-231 tumor cells, which are considered to be more resistant to cisplatin and are also sensitive to treatment with benzopyran-4-one derivatives, at least as compared to A549 cells (FIGS. 4, 17(a) and 17(b)). […] The pharmacokinetic data of Protoapigenone (I-1) and compound II-1 needs to be compared in future studies to determine the differences in the chemical effects of these 2 compounds in vitro and in vivo.
Please refer to FIGS. 31(a)-31(e), which are the surviving fractions of MDA-MB-231 cells which were co-administered compound II-1 with the DNA damaging agent, i.e. (a) doxorubicin, (b) etoposide, (c) mytomycin C, (d) camptothecin, or (e) taxol. […] Accordingly, a low dose of benzopyran-4-one derivatives can enhance the chemosensitivity of the chemotherapeutic drug.
To evaluate in vitro chemosensitization, cells were seeded in 6-well plates 1 d before the experiment at a density of 100-400 cells/well. The drugs were incubated with the cells for 6 h, after which the medium was replaced with fresh drug-free FBS-containing medium. The colonies became visible and were counted 7-10 d later using 0.1% crystal violet staining following image capture by a CCD camera (LAS-4000 mini; Fujifilm).

[2] = tested on: FANCD2; assay: Immunoblot of FANCD2 monoubiquitination; assay type: cell-based, human; settings: cisplatin-treated cells, same doses as Protoapigenone (I-1)
From the text: Understanding the mechanism by which the benzopyran-4-one derivatives compounds cause chromosomal breakages (FIG. 1) and other abnormalities might aid in identifying their targets. We hypothesized that genes with functions associated with DNA damage checkpoints and/or DNA repair might be targeted by benzopyran-4-one derivatives. To test this hypothesis, we assessed the effects of benzopyran-4-one derivatives on DDR induced by H2O2. […] In response to DNA double-strand breaks (DSBs), FANCD2 is known to be monoubiquitinated on K561 (FANCD2-Ub) in an ATR-dependent manner to stimulate repair (Andreassen P R, et al. Genes Dev 2004). […] Collectively, these findings indicate that benzopyran-4-one derivatives can modify ATR signaling after various types of DNA damage.
Inhibition of the checkpoint and repair mechanisms leads to chemosensitization in cancers. […] We further treated individual cells with cisplatin in combination with several varying doses of benzopyran-4-one derivatives, and counted survival colonies to determine their ability to survive after cisplatin-induced damage. […]
Cell lysate preparations, gel electrophoresis, and immunoblotting were performed as previously described (23). The binding of primary antibodies were detected by horseradish peroxidase-coupled secondary antibodies (Jackson ImmunoResearch) followed by enhanced chemiluminescence (ECL) (Millipore). […]

[3] = tested on: tumor xenografts; settings: previous studies; cited from earlier work
[4] = tested on: cancer cells; assay: MTT cytotoxicity assay on cancer cells, 48 h; assay type: cell-based, human; settings: FIG. 4
[5] = tested on: host cell; assay: MTT assay of host cell toxicity; assay type: cell-based; settings: 1 μM, 6 hours treatment plus 18 hours fresh medium
Experimental: To understand whether or not inhibition of the virus infection is followed by the host cell toxicity caused by the compound treatments, we performed an MTT [3-(4,5-cimethylthiazol-2-yl)-2,5-diphenyl tetrazolium bromide] assay in cells untreated or treated with indicated compounds for 6 hours. After that, the compound is washed out and the MTT assay was tested after an additional 18 hours of fresh culture medium incubation, in a way similar to the protocol shown in FIG. 26. 0.5 mg/mL of MTT contained media was added to cells at the end of the experiment and incubated for 3 hours. Then, the supernatant was removed and the formazone crystals solubilized using 100 μl of DMSO and the absorbance at 570 nm was read using a microplate reader. […] However, the virus inhibition effect of 50-99% is also shown at this dose of Compound II-1.

[6] = tested on: CHO cells; assay: In vitro chromosome aberration test; assay type: cell-based, Chinese Hamster; settings: for Average aberrant metaphases (%) / Chromatid break (No.) / Chromatid deletion / Complex rerrangement / Dicentric / Polyploid / Pulverized cell / Quadriradial / Ring / Triradial: Chinese hamster, 20 h
Experimental: To test this hypothesis, we investigated the cytogenetic effect of Protoapigenone (I-1) on CHO cells (FIG. 1).
In brief, 5×10^5 Chinese Hamster Ovary (CHO) cells were seeded in 60-mm dishes 1 d before the experiment. Protoapigenone (I-1)-induced structural chromosomal changes after 20 h were compared with that of the cells cultured in 2 μM mitomycin C. At 18 h after Protoapigenone (I-1), 0.1 μg/mL colchicine was added for 2 h, and metaphase cells were collected by shaking them off the dishes. Mitotic cells were treated with 0.5% KCl for 10 min and fixed with a 3:1 mixture of methanol: glacial acetic acid. The cells were then spread on slides for chromosome staining with 5% Giemsa solution. We then analyzed the chromosome structure of 200 well-spread metaphase cells (100 metaphase cells/experiment) under a 100× oil immersion objective.

Question: With `O=C1C=CC(O)(c2cc(=O)c3c(ccc4ccccc43)o2)C=C1` [Compound II-1, 3-(1-hydroxy-4-oxo-cyclohexa-2,5-dienyl)-1H-benzo[f]chromen-1-one] as the compound, how does the “Survival of MDA-MB-231 cells” value ([1]; 2.5 nM to 20.0 nM co-administered with camptothecin) read?
Answer: Its value is “not significantly decreased”.

Question: What about the “Survival of MDA-MB-231 cells” value ([1]; 2.5 nM to 20.0 nM co-administered with doxorubicin) of the same compound?
Answer: Its value is “significantly decreased”.

Question: And the “Survival of MDA-MB-231 cells” value ([1]; 2.5 nM to 20.0 nM co-administered with etoposide)?
Answer: The value was “significantly decreased”.

Question: What about the “Survival of MDA-MB-231 cells” value ([1]; 2.5 nM to 20.0 nM co-administered with mytomycin C) of the same compound?
Answer: Its value is “significantly decreased”.

Question: And the “Survival of MDA-MB-231 cells” value ([1]; 2.5 nM to 20.0 nM co-administered with taxol)?
Answer: The value was “not significantly decreased”.

Question: And the “FANCD2 monoubiquitination and protein stability” value [2]?
Answer: Its value is “not only inhibits monoubiquitination of FANCD2 but also affects FANCD2 protein stability”.

Question: And the “Size of tumor xenografts” value [3]?
Answer: Its value is “reduce the size of tumor xenografts”.

Question: What about the “Toxic effects on the recipient” value [3] of the same compound?
Answer: The value was “without exerting toxic effects on the recipient”.

Question: And the “Cytotoxicity, comparison” value [4]?
Answer: The value was “more potent than Protoapigenone (I-1)”.

Question: And the “Decrease of surviving cells” value [5]?
Answer: The value was 5-10%.

Question: Which “Chromosomal structural changes (breakages, radials, polyploidy), in words” value [6] does the source give for `O=C1C=CC(O)(c2cc(=O)c3c(O)cc(O)cc3o2)C=C1` [Compound I-1, Protoapigenone] here?
Answer: Its value is “dose-dependent increases”.

Question: And the “Obtaining complete mitotic chromosome” value [6]?
Answer: Its value is “complete mitotic chromosome could not be obtained”.

Question: And the “Average aberrant metaphases (%)” value ([6]; 2.17 μM)?
Answer: Its value is 6.5 * %.

Question: And the “Chromatid break (No.)” value ([6]; 2.17 μM)?
Answer: The value was 2 No.

Question: What about the Chromatid deletion ([6]; 2.17 μM) of the same compound?
Answer: The Chromatid deletion was 0 No.

Question: And the Complex rerrangement ([6]; 2.17 μM)?
Answer: The Complex rerrangement was 0 No.

Question: And the Dicentric ([6]; 2.17 μM)?
Answer: Its Dicentric is 0 No.

Question: What about the Polyploid ([6]; 2.17 μM) of the same compound?
Answer: The Polyploid was 3 No.

Question: And the Pulverized cell ([6]; 2.17 μM)?
Answer: The Pulverized cell was 0 No.

Question: And the Quadriradial ([6]; 2.17 μM)?
Answer: Its Quadriradial is 3 No.

Question: And the Ring ([6]; 2.17 μM)?
Answer: The Ring was 1 No.

Question: What about the Triradial ([6]; 2.17 μM) of the same compound?
Answer: The Triradial was 4 No.

Question: And the “Average aberrant metaphases (%)” value ([6]; 4.35 μM)?
Answer: The value was 14.0 * %.

Question: And the “Chromatid break (No.)” value ([6]; 4.35 μM)?
Answer: Its value is 1 No.

Question: And the Chromatid deletion ([6]; 4.35 μM)?
Answer: Its Chromatid deletion is 1 No.

Question: What about the Complex rerrangement ([6]; 4.35 μM) of the same compound?
Answer: The Complex rerrangement was 0 No.

Question: What about the Dicentric ([6]; 4.35 μM) of the same compound?
Answer: Its Dicentric is 0 No.

Question: What about the Polyploid ([6]; 4.35 μM) of the same compound?
Answer: Its Polyploid is 1 No.

Question: What about the Pulverized cell ([6]; 4.35 μM) of the same compound?
Answer: Its Pulverized cell is 1 No.

Question: And the Quadriradial ([6]; 4.35 μM)?
Answer: The Quadriradial was 9 No.

Question: What about the Ring ([6]; 4.35 μM) of the same compound?
Answer: Its Ring is 2 No.

Question: What about the Triradial ([6]; 4.35 μM) of the same compound?
Answer: Its Triradial is 13 No.

Question: And the “Size of tumor xenografts” value [3]?
Answer: Its value is “reduce the size of tumor xenografts”.

Question: What about the “Toxic effects on the recipient” value [3] of the same compound?
Answer: Its value is “without exerting toxic effects on the recipient”.
